Test results from patent publication US20050239656A1, “Pyridine compounds or salts thereof and herbicides containing the same” (priority 2002, published 2005).

Key:
barnyardgrass [1] = test: Test Example 3: paddy pot test, application under submerged conditions; assay type: in vivo, Echinochloa crus-galli L.; conditions: submerged application at 0.5 leaf stage, visually observed 14 days after application, 0 = non-treated, 100 = complete kill
In short: (§1)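 Paddy soil pots; seeds sown, lightly covered; flooded 0.5–1 cm in greenhouse; wapato tubers planted day 1–2; flood raised to 3–4 cm. Submerged pipette application at 0.5 leaf / primary leaf stage. Visual score day 14, 0–100%.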

soybean [2] = test: Test Example 2: soil surface treatment, upland pot test; assay type: in vivo, Glycine max Merr.; conditions: active ingredient 500 g/ha
In short: (§2)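 Pots (1/170,000 ha) filled with upland field soil were seeded, then treated on the following day by spraying the soil surface with diluted formulation (1,500 L/ha) at a fixed a.i. dose. Control was rated visually on a 0–100% scale at 20–28 days.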

japanese bulrush = test: Test Example 3: paddy pot test, application under submerged conditions; assay type: in vivo, Scirpus juncoides; conditions: submerged application at 0.5 leaf stage, visually observed 14 days after application, 0 = non-treated, 100 = complete kill
In short: as §1

redroot pigweed [3] = test: Test Example 1: foliage treatment, upland pot test; assay type: in vivo, Amaranthus retroflexus L.; conditions: active ingredient 500 g/ha, observed 18th to 23rd day, 0 = non-treated, 100 = complete kill
prickly sida [4] = test: Test Example 2: soil surface treatment, upland pot test; assay type: in vivo, Sida spinosa L.; conditions: active ingredient 500 g/ha
In short: as §2

green foxtail [5] = test: as above; assay type: in vivo, Setaria viridis L.; conditions: active ingredient 500 g/ha
In short: as §2

rice [6] = test: Test Example 1: foliage treatment, upland pot test; assay type: in vivo, Oryza sativa L.; conditions: crop, active ingredient 500 g/ha, observed 18th to 23rd day, 0 = non-treated, 100 = complete kill
In short: (§3)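 Sow in upland field soil; grow to leaf stage (barnyardgrass 1.3–2.8, soybean 0.1–0.4, wheat 1.3–2.4, rice 1.2–2.6); spray foliage with compound in water, 500 L/ha, spreader 0.1% (v/v); assess visually at 18–23 d, 0 (as untreated) to 100 (full kill).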

soybean [7] = test: Test Example 1: foliage treatment, upland pot test; assay type: in vivo, Glycine max Merr.; conditions: crop, active ingredient 500 g/ha, observed 18th to 23rd day, 0 = non-treated, 100 = complete kill
In short: as §3

rice (var. Nihonbare) = test: Test Example 3: paddy pot test, transplanted rice; assay type: in vivo, Oryza sativa L.; conditions: applied 4th day after transplantation, visually observed 21st day after application, 0 = non-treated, 100 = complete kill
In short: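 Visual crop-injury rating (0 = as untreated, 100 = complete kill, %) taken 21 days post-application. Treatment: formulated compound, water-diluted, pipetted into 3–4 cm flood water at a preset active-ingredient dose, 4 days after transplanting 2-leaf Nihonbare rice 3 cm deep in puddled paddy soil.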

prickly sida [8] = test: Test Example 1: foliage treatment, upland pot test; assay type: in vivo, Sida spinosa L.; conditions: active ingredient 500 g/ha, observed 18th to 23rd day, 0 = non-treated, 100 = complete kill
crabgrass [9] = test: Test Example 1: foliage treatment, upland pot test; assay type: in vivo, Digitaria sanguinalis L.; conditions: active ingredient 500 g/ha, observed 18th to 23rd day, 0 = non-treated, 100 = complete kill
velvetleaf [10] = test: Test Example 1: foliage treatment, upland pot test; assay type: in vivo, Abutilon theophrasti MEDIC.; conditions: active ingredient 500 g/ha, observed 18th to 23rd day, 0 = non-treated, 100 = complete kill
rice [11] = test: Test Example 2: soil surface treatment, upland pot test; assay type: in vivo, Oryza sativa L.; conditions: active ingredient 500 g/ha
In short: as §2

corn [12] = test: as above; assay type: in vivo, Zea mays L.; conditions: active ingredient 500 g/ha
In short: as §2

barnyardgrass [13] = test: Test Example 1: foliage treatment, upland pot test; assay type: in vivo, Echinochloa crus-galli L.; conditions: active ingredient 500 g/ha, observed 18th to 23rd day, 0 = non-treated, 100 = complete kill
In short: as §3

corn [14] = test: Test Example 1: foliage treatment, upland pot test; assay type: in vivo, Zea mays L.; conditions: crop, active ingredient 500 g/ha, observed 18th to 23rd day, 0 = non-treated, 100 = complete kill
In short: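 Corn seeds were sown in upland field soil held in a 1/170,000 ha pot and grown to the 2.1 to 3.2 leaf stage. A wettable powder or emulsifiable concentrate of the test compound was diluted with water at 500 L/ha, given 0.1% (v/v) agricultural spreader, and sprayed onto the foliage with a small sprayer. Growth controlling degree (%) was scored visually 18th to 23rd days later, from 0 (non-treated) to 100 (complete kill).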

velvetleaf [15] = test: Test Example 2: soil surface treatment, upland pot test; assay type: in vivo, Abutilon theophrasti MEDIC.; conditions: active ingredient 500 g/ha
In short: as §2

redroot pigweed [16] = test: as above; assay type: in vivo, Amaranthus retroflexus L.; conditions: active ingredient 500 g/ha
In short: as §2

green foxtail [17] = test: Test Example 1: foliage treatment, upland pot test; assay type: in vivo, Setaria viridis L.; conditions: active ingredient 500 g/ha, observed 18th to 23rd day, 0 = non-treated, 100 = complete kill
crabgrass [18] = test: Test Example 2: soil surface treatment, upland pot test; assay type: in vivo, Digitaria sanguinalis L.; conditions: active ingredient 500 g/ha
In short: as §2

barnyardgrass [19] = test: as above; assay type: in vivo, Echinochloa crus-galli L.; conditions: active ingredient 500 g/ha
In short: as §2

japanese ribbon wapato = test: Test Example 3: paddy pot test, application under submerged conditions; assay type: in vivo, Sagittaria pygniaea; conditions: submerged application at primary leaf stage, visually observed 14 days after application, 0 = non-treated, 100 = complete kill
In short: as §1

[20] = observed day 21, 0 = non-treated, 100 = complete kill

Compound	Growth controlling degree (%) Soyabean (soybean [2]; observed 20th to 28th day)	Growth controlling degree (%) Redroot pigweed (redroot pigweed [3])	Growth controlling degree (%) Prickly sida (prickly sida [4]; observed 20th to 28th day)	Growth controlling degree (%) Green foxtail (green foxtail [5]; observed 20th to 28th day)	Growth controlling degree (%) Rice (rice [6])	Growth controlling degree (%) Soybean (soybean [7])	Growth controlling degree (%) Prickly sida (prickly sida [8])	Growth controlling degree (%) Crabgrass (crabgrass [9])	Growth controlling degree (%) Velvetleaf (velvetleaf [10])	Growth controlling degree (%) Rice (rice [11]; observed 20th to 28th day)	Growth controlling degree (%) Corn (corn [12]; observed 20th to 28th day)	Growth controlling degree (%) Barnyardgrass (barnyardgrass [13])	Growth controlling degree (%) Corn (corn [14])	Growth controlling degree (%) Velvetleaf (velvetleaf [15]; observed 20th to 28th day)	Growth controlling degree (%) Redroot pigweed (redroot pigweed [16]; observed 20th to 28th day)	Growth controlling degree (%) Green foxtail (green foxtail [17])	Growth controlling degree (%) Crabgrass (crabgrass [18]; observed 20th to 28th day)	Growth controlling degree (%) Barnyardgrass (barnyardgrass [19]; observed 20th to 28th day)	Growth controlling degree (%) Barnyardgrass (barnyardgrass [1]; active ingredient 250 g/ha)	Growth controlling degree (%) Japanese bulrush (japanese bulrush; active ingredient 250 g/ha)	also measured
CC(C)C(c1cnccc1Cl)N(C)C(=O)Cc1ccccc1F (stereo not drawn) [I-66]	50%	50%	30%	50%	10%	50%	60%	70%	70%	40%	10%	20%	40%	40%	60%	70%	90%	80%			Growth controlling degree (%) Barnyardgrass (barnyardgrass [1]; active ingredient 125 g/ha): 98%; Growth controlling degree (%) Japanese bulrush (japanese bulrush; active ingredient 125 g/ha): 90%; Growth controlling degree (%) Rice (rice (var. Nihonbare); active ingredient 125 g/ha): 10%; Growth controlling degree (%) Japanese ribbon wapato (japanese ribbon wapato; active ingredient 125 g/ha): 10%
CCC(CC)C(c1cnccc1C(F)(F)F)N(C)C(=O)Cc1ccccc1 (stereo not drawn) [I-262]		70%			35%	80%	95%	80%	90%			80%	60%			70%			98%	95%	Growth controlling degree (%) Soyabean (soybean [2]; [20]): 20%; Growth controlling degree (%) Prickly sida (prickly sida [4]; [20]): 90%; Growth controlling degree (%) Green foxtail (green foxtail [5]; [20]): 95%; Growth controlling degree (%) Rice (rice (var. Nihonbare); active ingredient 250 g/ha): 0%; Growth controlling degree (%) Rice (rice [11]; [20]): 50%; Growth controlling degree (%) Corn (corn [12]; [20]): 40%; Growth controlling degree (%) Velvetleaf (velvetleaf [15]; [20]): 60%; Growth controlling degree (%) Redroot pigweed (redroot pigweed [16]; [20]): 70%; Growth controlling degree (%) Crabgrass (crabgrass [18]; [20]): 100%; Growth controlling degree (%) Barnyardgrass (barnyardgrass [19]; [20]): 20%; Growth controlling degree (%) Japanese ribbon wapato (japanese ribbon wapato; active ingredient 250 g/ha): 30%
CC(C)C(c1cnccc1C(F)(F)F)N(C)C(=O)Cc1ccc(C(F)(F)F)c(F)c1 (stereo not drawn) [I-62]	10%	80%	98%	60%	10%	30%	70%	60%	90%	10%	10%	20%	10%	50%	70%	40%	98%	60%	98%	30%	Growth controlling degree (%) Rice (rice (var. Nihonbare); active ingredient 250 g/ha): 20%; Growth controlling degree (%) Japanese ribbon wapato (japanese ribbon wapato; active ingredient 250 g/ha): 0%
